Measured values as given in US8293706B2, “Method for inhibiting release of hepatitis B virus from liver cells” (priority 2008, dated 2012).
Read-outs that look alike come from different tables or passages of the source.

Tests used:
[1] = system: HBV M204V; experiment: HBVDR assay, strain M204V; format: cell-based
[2] = system: HBV M204I; experiment: HBVDR assay, strain M204I; format: cell-based
[3] = system: HBV N236T; experiment: HBVDR assay, strain N236T; format: cell-based
[4] = system: HBV WT; experiment: HBVDR assay, strain WT; format: cell-based; details: assay type HBVDR
[5] = Neutral red dye uptake toxicity in 2.2.15 cells; format: cell-based, human; details: human, neutral red uptake (A510) 24 hours after last of 9 daily treatments, positive assay control
Protocol: (§1) The ability of sLDLR to inhibit pathogenic viruses was tested by the NIAID Antimicrobial Acquisition and Coordinating Facility (AACF). Confluent cultures of 2.2.15 cells (HBV-infected human HepG2 hepatocellular carcinoma cells (ATCC HB-8065), constitutively shedding HBV virions) were maintained on 96-well flat-bottomed tissue culture plates in RPMI1640 medium with 2% fetal bovine serum (Korba & Gerin, Antivir. Res. 19:55-70, 1992). Cultures (6 per each of 4 test concentrations on two replicate plates) were treated with 9 consecutive daily doses of sLDL compounds. Medium was changed daily with fresh test compounds. HBV virion DNA in the culture medium was assessed 24 hours after the last treatment by quantitative blot hybridization. Uptake of neutral red dye (absorbance of internalized dye at […] [A510]) wa used to determine the relative level of toxicity 24 hours following the last treatment (Korba & Gerin, Antivir. Res. 19:55-70, 1992). Values are presented as a percentage of the average A510 values for 9 separate cultures of untreated cells maintained on the same plate. Cultures for the toxicity analyses were seeded at the same time with the identical pool of stock cells used for the antiviral analyses and maintained in an identical manner. A total of 3 cultures were treated with each concentration of test compound. […] CC50, EC50, EC90, and S.I. (CC50/EC90) were calculated. […]

[6] = system: HBV LM/MV; experiment: HBVDR assay, strain LM/MV; format: cell-based
[7] = system: HBV L180M; experiment: HBVDR assay, strain L180M; format: cell-based
[8] = system: HBV; experiment: Inhibition of HBV release from 2.2.15 cells (HBV virion DNA in culture medium, quantitative blot hybridization); format: cell-based; details: for SI: S.I. (CC50/EC90)
Protocol: The ability of sLDLR to inhibit pathogenic viruses was tested by the NIAID Antimicrobial Acquisition and Coordinating Facility (AACF). Confluent cultures of 2.2.15 cells (HBV-infected human HepG2 hepatocellular carcinoma cells (ATCC HB-8065), constitutively shedding HBV virions) were maintained on 96-well flat-bottomed tissue culture plates in RPMI1640 medium with 2% fetal bovine serum (Korba & Gerin, Antivir. Res. 19:55-70, 1992). Cultures (6 per each of 4 test concentrations on two replicate plates) were treated with 9 consecutive daily doses of sLDL compounds. Medium was changed daily with fresh test compounds. HBV virion DNA in the culture medium was assessed 24 hours after the last treatment by quantitative blot hybridization. Uptake of neutral red dye (absorbance of internalized dye at […] [A510]) wa used to determine the relative level of toxicity 24 hours following the last treatment (Korba & Gerin, Antivir. Res. 19:55-70, 1992). Values are presented as a percentage of the average A510 values for 9 separate cultures of untreated cells maintained on the same plate. Cultures for the toxicity analyses were seeded at the same time with the identical pool of stock cells used for the antiviral analyses and maintained in an identical manner. A total of 3 cultures were treated with each concentration of test compound. […] CC50, EC50, EC90, and S.I. (CC50/EC90) were calculated. Lamivudine (3TC) was used as a positive assay control.

[9] = system: 2.2.15 cells (HBV-infected human HepG2 hepatocellular carcinoma cells); experiment: Neutral red dye uptake toxicity in 2.2.15 cells; format: cell-based; details: neutral red uptake (A510) 24 hours after last of 9 daily treatments
Protocol: as §1

[10] = system: lamivudine as well as adefovir dipovoxil resistant mutants (HBV); experiment: HBVDR assay, panel of resistant mutants; format: cell-based; details: all tested resistant mutants
[11] = HBV strain M204V, assay type HBVDR, read-out: EC50
[12] = HBV strain M204V, assay type HBVDR, read-out: EC90
[13] = HBV strain M204I, assay type HBVDR, read-out: EC50
[14] = HBV strain M204I, assay type HBVDR, read-out: EC90
[15] = HBV strain N236T, assay type HBVDR, read-out: EC50
[16] = HBV strain N236T, assay type HBVDR, read-out: EC90
[17] = HBV strain LM/MV, assay type HBVDR, read-out: EC50
[18] = HBV strain LM/MV, assay type HBVDR, read-out: EC90
[19] = HBV strain L180M, assay type HBVDR, read-out: EC50
[20] = HBV strain L180M, assay type HBVDR, read-out: EC90
[21] = HBV virion DNA in culture medium 24 hours after last of 9 consecutive daily doses, 2.2.15 cells

Compound | EC50 [1, 11] [µM] | EC90 [1, 12] [µM] | EC50 [2, 13] [µM] | EC90 [2, 14] [µM] | EC50 [3, 15] [µM] | EC90 [3, 16] [µM] | EC50 [4] [µM] | EC90 [4] [µM] | EC50 [6, 17] [µM] | EC90 [6, 18] [µM] | EC50 [7, 19] [µM] | EC90 [7, 20] [µM] | other results
Nc1ccn([C@@H]2CS[C@H](CO)O2)c(=O)n1 [Lamivudine] | – | – | – | – | – | – | – | – | – | – | – | – | EC50 ([1]; Hepatitis B virus): > 100 µM; EC90 ([1]; Hepatitis B virus): > 100 µM; EC50 ([2]; Hepatitis B virus): > 100 µM; EC90 ([2]; Hepatitis B virus): > 100 µM; EC50 ([3]; Hepatitis B virus): 0.2 µM; EC90 ([3]; Hepatitis B virus): 0.6 µM; EC50 ([4]; Hepatitis B virus): 0.2 µM; EC90 ([4]; Hepatitis B virus): 0.7 µM; CC50 [5]: 2310 µM; EC50 ([6]; Hepatitis B virus): > 100 µM; EC90 ([6]; Hepatitis B virus): > 100 µM; EC50 ([7]; Hepatitis B virus): 5.2 µM; EC90 ([7]; Hepatitis B virus): 20 µM; EC50 ([8]; Hepatitis B virus, 24 h): 0.045 µM; EC90 ([8]; Hepatitis B virus, 24 h): 0.146 µM; SI ([8]; Lamivudine columns): 15178
sLDLR | 1 | 6.5 | 1.1 | 8 | 1 | 8.2 | 0.9 | 6 | 1.2 | 7.5 | 0.8 | 6.3 | CC50 [9]: >10 µg/mL; activity against lamivudine and adefovir dipovoxil resistant mutants [10]: active against all tested lamivudine as well as adefovir dipovoxil resistant mutants; inhibition of formation of HBV virion from virus-infected cells relative to toxicity ([8]; 2.2.15 cells): inhibited the formation of HBV virion from virus-infected cells at concentrations far below toxicity; EC50 [8, 21]: 0.131 µg/mL; EC90 [8, 21]: 0.922 µg/mL; SI ([8]; sLDLR columns): >11
CC(C)(C)C(=O)OCOP(=O)(COCCn1cnc2c(N)ncnc21)OCOC(=O)C(C)(C)C [ADV, Adefovir Dipovoxil] | 1.8 | 7 | 1.3 | 7.2 | 8.1 | 32 | 1.5 | 6.5 | 1.3 | 7.8 | 1.9 | 8.5 | –
